In ChEMBL document CHEMBL1201862, “PubChem BioAssay data set” (2004):
Calls of active or inactive are those of the source.

Tests used:
Nonstructural protein 1 = Nonstructural protein 1 (Influenza A virus, UniProt Q194T2); type: functional, Influenza A virus (A/California/07/2009(H1N1))
[1] = molecular target: T1, Short transient receptor potential channel 4 (Mus musculus, UniProt Q9QUQ5); test: TRPC4 positive allosteric modulators, dose response, cell-based, HEK293 TRPC4/mu-opioid, Fluo-4 calcium, EC20 DAMGO (AID 434941); type: functional
T1 sequence (Q9QUQ5 whole entry): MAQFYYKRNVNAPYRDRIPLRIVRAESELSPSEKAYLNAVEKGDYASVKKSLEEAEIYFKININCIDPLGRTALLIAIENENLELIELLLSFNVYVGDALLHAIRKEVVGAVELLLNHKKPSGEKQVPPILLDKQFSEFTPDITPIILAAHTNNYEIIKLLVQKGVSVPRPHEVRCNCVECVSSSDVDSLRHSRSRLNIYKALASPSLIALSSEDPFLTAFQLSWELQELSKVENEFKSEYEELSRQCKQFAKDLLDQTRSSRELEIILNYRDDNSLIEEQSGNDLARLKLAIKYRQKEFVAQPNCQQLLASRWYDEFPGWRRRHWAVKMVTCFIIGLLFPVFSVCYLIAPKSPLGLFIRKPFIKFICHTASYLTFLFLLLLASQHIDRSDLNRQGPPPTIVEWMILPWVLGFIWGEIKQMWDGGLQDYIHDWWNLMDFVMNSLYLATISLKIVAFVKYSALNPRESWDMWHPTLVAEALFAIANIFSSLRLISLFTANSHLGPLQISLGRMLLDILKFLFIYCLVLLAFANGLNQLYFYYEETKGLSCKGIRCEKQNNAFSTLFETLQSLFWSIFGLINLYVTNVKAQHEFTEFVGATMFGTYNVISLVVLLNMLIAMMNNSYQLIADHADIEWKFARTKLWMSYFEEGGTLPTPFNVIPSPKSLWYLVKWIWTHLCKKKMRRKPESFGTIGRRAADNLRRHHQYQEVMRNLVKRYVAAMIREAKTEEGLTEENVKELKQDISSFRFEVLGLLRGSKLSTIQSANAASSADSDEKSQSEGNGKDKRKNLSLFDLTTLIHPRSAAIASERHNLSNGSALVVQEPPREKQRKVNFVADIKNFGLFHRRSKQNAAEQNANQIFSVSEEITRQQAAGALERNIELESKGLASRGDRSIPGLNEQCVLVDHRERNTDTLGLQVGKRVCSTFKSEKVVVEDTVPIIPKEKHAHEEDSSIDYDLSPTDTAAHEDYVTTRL

[2] = molecular target: G-protein coupled receptor 55 (Homo sapiens, UniProt Q9Y2T6); test: GPR55 antagonists blocking LPI-driven arrestin recruitment, primary screen, imaging, U2OS, beta-arrestin-GFP, LPI agonist (AID 2013); type: functional;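 further: antagonist potency measured as reduced agonist-driven arrestin aggregation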
Chain of G-protein coupled receptor 55 (Q9Y2T6 whole entry): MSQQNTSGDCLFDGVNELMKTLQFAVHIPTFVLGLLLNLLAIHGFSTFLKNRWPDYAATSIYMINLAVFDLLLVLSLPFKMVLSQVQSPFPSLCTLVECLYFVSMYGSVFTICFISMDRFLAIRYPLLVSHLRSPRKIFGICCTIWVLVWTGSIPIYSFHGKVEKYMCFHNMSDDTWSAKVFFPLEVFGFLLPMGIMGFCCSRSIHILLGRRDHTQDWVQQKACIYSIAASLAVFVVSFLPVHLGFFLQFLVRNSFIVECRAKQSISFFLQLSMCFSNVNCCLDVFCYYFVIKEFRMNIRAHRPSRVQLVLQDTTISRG

[3] = molecular target: Intestinal-type alkaline phosphatase (Mus musculus, UniProt P24822); test: PubChem AID 488785; type: functional
Chain of Intestinal-type alkaline phosphatase (Mus musculus, UniProt P24822) (P24822 whole entry): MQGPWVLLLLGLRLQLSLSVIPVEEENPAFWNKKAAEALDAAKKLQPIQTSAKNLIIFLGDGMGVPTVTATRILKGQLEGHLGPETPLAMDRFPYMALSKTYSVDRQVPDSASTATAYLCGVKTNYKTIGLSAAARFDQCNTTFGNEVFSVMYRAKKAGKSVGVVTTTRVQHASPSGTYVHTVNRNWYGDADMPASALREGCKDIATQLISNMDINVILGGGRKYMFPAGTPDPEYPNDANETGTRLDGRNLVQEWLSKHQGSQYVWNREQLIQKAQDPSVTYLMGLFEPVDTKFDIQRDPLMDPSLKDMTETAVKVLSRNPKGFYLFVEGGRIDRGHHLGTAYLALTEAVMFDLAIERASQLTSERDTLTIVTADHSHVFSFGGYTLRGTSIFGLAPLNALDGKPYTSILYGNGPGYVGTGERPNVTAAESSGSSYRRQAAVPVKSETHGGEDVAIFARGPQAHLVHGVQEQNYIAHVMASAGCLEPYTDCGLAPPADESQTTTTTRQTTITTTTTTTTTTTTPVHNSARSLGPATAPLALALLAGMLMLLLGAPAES

[4] = molecular target: T2, Alkaline phosphatase, tissue-nonspecific isozyme (Homo sapiens, UniProt P05186); test: TNAP enzyme inhibition by screening hits, dose response, selectivity assay for mouse IAP inhibitor project, biochemical, human TNAP, uHTS hits (AID 488906); type: functional
T2 sequence (P05186 whole entry): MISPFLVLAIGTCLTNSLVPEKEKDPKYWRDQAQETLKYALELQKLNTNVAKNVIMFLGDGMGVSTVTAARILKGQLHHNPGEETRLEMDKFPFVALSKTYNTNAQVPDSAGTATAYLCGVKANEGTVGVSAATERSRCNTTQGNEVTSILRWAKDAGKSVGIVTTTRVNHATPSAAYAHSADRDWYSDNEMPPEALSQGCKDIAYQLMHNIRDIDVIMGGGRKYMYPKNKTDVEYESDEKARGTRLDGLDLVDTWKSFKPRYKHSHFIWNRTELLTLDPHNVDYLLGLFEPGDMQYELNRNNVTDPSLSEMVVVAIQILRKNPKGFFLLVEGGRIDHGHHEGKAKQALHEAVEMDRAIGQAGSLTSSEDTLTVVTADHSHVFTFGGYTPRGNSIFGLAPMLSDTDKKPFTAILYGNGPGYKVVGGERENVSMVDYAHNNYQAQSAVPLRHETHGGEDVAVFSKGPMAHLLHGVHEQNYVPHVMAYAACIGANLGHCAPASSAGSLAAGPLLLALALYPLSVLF

[5] = molecular target: Intestinal-type alkaline phosphatase (Homo sapiens, UniProt P09923); test: activation of human intestinal alkaline phosphatase – biochemical, dose response (AID 488873); type: functional
Chain of Intestinal-type alkaline phosphatase (Homo sapiens, UniProt P09923) (P09923 whole entry): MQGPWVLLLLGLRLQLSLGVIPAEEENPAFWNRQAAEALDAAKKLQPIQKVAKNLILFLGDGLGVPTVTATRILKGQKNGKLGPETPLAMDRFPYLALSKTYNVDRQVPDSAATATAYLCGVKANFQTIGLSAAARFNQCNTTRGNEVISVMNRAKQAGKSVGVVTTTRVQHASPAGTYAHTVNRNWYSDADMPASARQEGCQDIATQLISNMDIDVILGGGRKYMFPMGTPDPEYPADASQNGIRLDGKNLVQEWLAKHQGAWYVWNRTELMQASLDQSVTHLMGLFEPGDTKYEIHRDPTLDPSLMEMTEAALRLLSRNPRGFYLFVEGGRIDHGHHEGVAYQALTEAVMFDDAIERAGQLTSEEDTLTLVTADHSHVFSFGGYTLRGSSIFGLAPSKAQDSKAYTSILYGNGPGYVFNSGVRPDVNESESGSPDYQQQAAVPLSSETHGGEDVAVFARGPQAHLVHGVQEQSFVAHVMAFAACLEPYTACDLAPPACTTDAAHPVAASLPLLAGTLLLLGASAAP

[6] = molecular target: T3, Histone-lysine N-methyltransferase NSD2 (Homo sapiens, UniProt O96028); type: biochemical
T3 sequence (O96028 whole entry): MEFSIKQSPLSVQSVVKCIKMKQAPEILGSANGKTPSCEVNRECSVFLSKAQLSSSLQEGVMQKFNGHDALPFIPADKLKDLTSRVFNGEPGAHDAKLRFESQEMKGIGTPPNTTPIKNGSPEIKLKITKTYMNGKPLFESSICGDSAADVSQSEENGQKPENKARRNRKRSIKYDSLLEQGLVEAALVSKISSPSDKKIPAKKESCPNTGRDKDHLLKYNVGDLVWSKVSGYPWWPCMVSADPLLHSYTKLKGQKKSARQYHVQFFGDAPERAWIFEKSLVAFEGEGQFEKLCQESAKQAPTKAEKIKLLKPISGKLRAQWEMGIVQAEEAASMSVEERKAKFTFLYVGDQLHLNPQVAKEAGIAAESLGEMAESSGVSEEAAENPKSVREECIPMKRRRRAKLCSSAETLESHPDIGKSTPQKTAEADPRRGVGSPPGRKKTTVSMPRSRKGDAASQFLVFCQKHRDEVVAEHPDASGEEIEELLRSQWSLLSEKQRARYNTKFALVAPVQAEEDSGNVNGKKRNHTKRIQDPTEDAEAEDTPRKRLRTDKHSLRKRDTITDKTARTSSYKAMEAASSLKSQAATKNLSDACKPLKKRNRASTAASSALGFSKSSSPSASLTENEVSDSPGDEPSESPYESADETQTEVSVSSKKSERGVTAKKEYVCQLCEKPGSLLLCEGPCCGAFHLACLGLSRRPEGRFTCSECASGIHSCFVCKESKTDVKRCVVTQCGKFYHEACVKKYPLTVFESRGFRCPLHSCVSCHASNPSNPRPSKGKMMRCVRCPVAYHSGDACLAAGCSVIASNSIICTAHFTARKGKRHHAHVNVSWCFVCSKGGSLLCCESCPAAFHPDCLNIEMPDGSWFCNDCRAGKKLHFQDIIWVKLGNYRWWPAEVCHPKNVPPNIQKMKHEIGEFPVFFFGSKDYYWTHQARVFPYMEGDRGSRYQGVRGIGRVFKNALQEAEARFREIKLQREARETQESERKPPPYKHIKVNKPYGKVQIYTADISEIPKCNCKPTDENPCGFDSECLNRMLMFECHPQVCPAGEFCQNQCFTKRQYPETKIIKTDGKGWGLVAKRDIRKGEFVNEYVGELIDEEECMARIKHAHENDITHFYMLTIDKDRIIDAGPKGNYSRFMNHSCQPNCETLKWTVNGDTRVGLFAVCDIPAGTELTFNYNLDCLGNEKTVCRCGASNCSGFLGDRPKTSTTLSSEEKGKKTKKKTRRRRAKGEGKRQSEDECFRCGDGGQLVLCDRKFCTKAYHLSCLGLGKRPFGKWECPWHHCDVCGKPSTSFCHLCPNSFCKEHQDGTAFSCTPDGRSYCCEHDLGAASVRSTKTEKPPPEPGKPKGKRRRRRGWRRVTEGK

H9c2 = test: cells; type: functional, cell-based; conditions: Rattus norvegicus, H9c2, Myocardium;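 further: confirmatory concentration-response retest of ultra-high-throughput screening hits for modulation of myocardial damage; cell death induced by hydrogen peroxide oxidative stress; compound pretreatment for 60 min then peroxide exposure for 2 h; potency is for protecting the cells against peroxide damage rather than for killing them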
[7] = molecular target: Alkaline phosphatase, placental type (Homo sapiens, UniProt P05187); test: PLAP enzyme inhibitors, confirmation, biochemical, luminescence (AID 1512); type: functional
Chain of Alkaline phosphatase, placental type (P05187 whole entry): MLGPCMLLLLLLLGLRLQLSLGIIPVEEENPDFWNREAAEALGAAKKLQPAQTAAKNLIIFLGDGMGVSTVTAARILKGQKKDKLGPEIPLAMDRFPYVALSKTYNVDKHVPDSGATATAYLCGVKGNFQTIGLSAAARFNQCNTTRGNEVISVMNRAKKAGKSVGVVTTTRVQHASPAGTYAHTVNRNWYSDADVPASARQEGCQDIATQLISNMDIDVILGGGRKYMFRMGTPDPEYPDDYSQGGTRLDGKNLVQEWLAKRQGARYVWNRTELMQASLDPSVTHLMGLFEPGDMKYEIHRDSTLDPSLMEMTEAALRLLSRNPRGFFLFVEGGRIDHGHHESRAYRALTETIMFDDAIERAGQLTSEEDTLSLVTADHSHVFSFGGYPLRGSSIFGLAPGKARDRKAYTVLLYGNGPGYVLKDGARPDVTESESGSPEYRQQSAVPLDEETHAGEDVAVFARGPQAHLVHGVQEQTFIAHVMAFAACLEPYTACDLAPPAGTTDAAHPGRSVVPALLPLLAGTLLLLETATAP

[8] = molecular target: T2, Alkaline phosphatase, tissue-nonspecific isozyme; test: human TNAP enzyme inhibitors, SAR follow-up, biochemical, luminescent, dose response (AID 1056)
[9] = molecular target: DNA dC->dU-editing enzyme APOBEC-3G (Homo sapiens, UniProt Q9HC16); type: functional;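 further: Dose-response counterscreen measuring inhibition of APOBEC3G DNA deaminase activity, run while confirming APOBEC3A inhibitors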
Chain of DNA dC->dU-editing enzyme APOBEC-3G (Q9HC16 whole entry): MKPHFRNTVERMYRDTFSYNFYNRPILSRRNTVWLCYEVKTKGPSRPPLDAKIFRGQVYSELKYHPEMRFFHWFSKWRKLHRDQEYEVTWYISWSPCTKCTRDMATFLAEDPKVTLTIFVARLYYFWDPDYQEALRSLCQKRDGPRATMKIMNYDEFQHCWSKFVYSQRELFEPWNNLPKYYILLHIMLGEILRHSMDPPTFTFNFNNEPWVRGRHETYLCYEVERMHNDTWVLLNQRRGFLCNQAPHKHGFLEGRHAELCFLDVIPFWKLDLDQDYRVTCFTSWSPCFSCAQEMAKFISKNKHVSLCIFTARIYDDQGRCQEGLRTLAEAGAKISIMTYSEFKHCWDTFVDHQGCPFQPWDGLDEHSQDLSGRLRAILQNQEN

[10] = molecular target: DNA dC->dU-editing enzyme APOBEC-3A (Homo sapiens, UniProt P31941); test: Dose Response confirmation of small molecule APOBEC3A DNA Deaminase Inhibitors via a fluorescence-based single-stranded DNA deaminase assay. [Related pubchem assays (depositor defined):AID493011, AID493024]; type: functional
Chain of DNA dC->dU-editing enzyme APOBEC-3A (P31941 whole entry, the tested form may be a part): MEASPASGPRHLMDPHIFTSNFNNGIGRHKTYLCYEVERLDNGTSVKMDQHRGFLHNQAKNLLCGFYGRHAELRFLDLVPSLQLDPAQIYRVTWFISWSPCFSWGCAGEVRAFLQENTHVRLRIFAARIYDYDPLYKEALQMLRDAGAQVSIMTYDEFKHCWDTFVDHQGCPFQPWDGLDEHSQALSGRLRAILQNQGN

[11] = molecular target: T4, RNA-binding protein pos-1 (Caenorhabditis elegans, UniProt G5EF15); test: inhibitors of POS-1/mex-3 RNA binding, dose response, biochemical, fluorescence polarization (AID 1964);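 further: purified POS-1 fused to maltose binding protein made in E. coli; potency of compounds blocking POS-1 binding to fluorescent RNA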
T4 sequence (G5EF15 whole entry): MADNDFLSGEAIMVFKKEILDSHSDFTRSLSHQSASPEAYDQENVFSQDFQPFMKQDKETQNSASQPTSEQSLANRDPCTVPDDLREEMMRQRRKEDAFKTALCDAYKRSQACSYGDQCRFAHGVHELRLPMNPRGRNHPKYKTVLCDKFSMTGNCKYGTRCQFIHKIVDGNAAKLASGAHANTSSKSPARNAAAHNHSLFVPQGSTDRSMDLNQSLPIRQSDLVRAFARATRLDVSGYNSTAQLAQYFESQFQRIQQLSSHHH

[12] = molecular target: T5, Zinc finger protein mex-5 (Caenorhabditis elegans, UniProt Q9XUB2); test: MEX-5/TCR-2 RNA interaction inhibitors, dose response, biochemical, C. elegans, fluorescence polarization (AID 1960)
T5 sequence (Q9XUB2 whole entry): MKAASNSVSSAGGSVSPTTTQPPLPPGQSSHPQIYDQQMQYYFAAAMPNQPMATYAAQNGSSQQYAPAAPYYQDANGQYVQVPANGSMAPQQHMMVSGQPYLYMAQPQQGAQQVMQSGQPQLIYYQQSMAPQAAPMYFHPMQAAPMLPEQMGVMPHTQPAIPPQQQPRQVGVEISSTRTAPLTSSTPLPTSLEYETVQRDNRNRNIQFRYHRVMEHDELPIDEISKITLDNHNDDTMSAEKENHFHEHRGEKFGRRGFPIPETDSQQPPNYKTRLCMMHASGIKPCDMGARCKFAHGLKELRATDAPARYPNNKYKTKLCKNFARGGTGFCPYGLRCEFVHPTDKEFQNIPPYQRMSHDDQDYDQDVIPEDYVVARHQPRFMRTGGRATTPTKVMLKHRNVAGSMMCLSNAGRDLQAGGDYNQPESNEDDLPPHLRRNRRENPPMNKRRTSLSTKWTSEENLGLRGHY

CAAX prenyl protease 2 = molecular target: T6, CAAX prenyl protease 2 (Saccharomyces cerevisiae S288c, UniProt Q03530); type: biochemical
T6 sequence (Q03530 whole entry): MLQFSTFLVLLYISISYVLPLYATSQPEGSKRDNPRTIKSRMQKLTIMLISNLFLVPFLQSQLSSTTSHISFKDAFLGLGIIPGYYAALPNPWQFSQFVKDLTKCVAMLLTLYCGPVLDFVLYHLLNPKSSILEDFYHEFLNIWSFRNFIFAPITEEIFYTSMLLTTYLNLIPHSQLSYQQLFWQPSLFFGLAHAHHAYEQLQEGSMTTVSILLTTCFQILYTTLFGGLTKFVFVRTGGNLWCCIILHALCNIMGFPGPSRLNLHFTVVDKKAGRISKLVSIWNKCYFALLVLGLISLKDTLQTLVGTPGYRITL

Chain of Nonstructural protein 1 (Q194T2 whole entry): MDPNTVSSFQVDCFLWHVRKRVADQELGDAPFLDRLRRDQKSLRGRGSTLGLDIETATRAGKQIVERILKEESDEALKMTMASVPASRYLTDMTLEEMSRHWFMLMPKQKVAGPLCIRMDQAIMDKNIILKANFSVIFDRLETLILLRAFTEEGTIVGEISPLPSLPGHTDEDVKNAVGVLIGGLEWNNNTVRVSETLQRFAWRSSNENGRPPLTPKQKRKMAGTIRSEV

In the case of `CN1CCN(C2CCN(c3ccc(Nc4nnc(Cl)c(Nc5ccccc5S(C)(=O)=O)n4)c(OC(CF)CF)c3)CC2)CC1`, the IC50 (Nonstructural protein 1) was > 100 µM (active).
For `O=C1C(Cl)=C(Nc2cccc(O)c2)C(=O)N1Cc1ccccc1`, the EC50 [1] was 3.76 µM (active).
In the case of `CCOC(=O)C1=C(C)N=C(C)/C(=C(/O)OC)C1c1cccc([N+](=O)[O-])c1` (stereo not given), the IC50 [2] was 1.47 µM (active).
In the case of `CCCCn1c(SCC(=O)N2c3ccccc3Sc3ccccc32)nc2c1c(=O)n(C)c(=O)n2C`, the EC50 [1] was 4.22 µM (active).
For `O=C(CN1CCN(c2ccccc2F)CC1)c1ccc(O)c(O)c1`, the IC50 [3] was 1.63 µM (active), the IC50 [4] was 96.8 µM (active) and the EC50 [5] was > 100 µM (inactive). For the same molecule, the AC50 [6] was 8.98 µM (active) and the IC50 (H9c2) was > 79 µM (inactive).
For `Cn1c(NCC(=O)c2ccc(O)c(O)c2)nc2ccccc21`, the IC50 [7] was 7.9 µM (active) and the IC50 [8] was 8.58 µM (active).
For `COC(=O)C1=C(C)N(Cc2ccccc2)C(=NCC(C)C)N[C@H]1c1ccccc1`, the IC50 [9] was 4.17 µM (active), the IC50 [10] was 4.65 µM (active) and the EC50 [11] was > 300 µM (not active). The EC50 [12] was 42.7 µM (active) and the IC50 [2] was 1.78 µM (active).
For `CCn1cc(/C=C(\NC(=O)c2ccccc2Cl)C(=O)N2CCOCC2)c2ccccc21`, the AC50 (CAAX prenyl protease 2) was 4.91 µM (active).
`CCCCN1C(=O)/C(=N\Nc2ccccc2)c2ccccc21` was tested, and the IC50 [7] was 18.7 µM (active) and the IC50 [8] was 72.3 µM (active).
`Cc1cc(OCC(=O)N(C(C)C)C(C)C)cc(C)c1Br` was tested, and the EC50 [1] was 3.76 µM (active).
